In data set [1] the target is T1, Tyrosine-protein phosphatase non-receptor type 1 (Homo sapiens) (UniProt P18031).
T1 sequence (whole entry): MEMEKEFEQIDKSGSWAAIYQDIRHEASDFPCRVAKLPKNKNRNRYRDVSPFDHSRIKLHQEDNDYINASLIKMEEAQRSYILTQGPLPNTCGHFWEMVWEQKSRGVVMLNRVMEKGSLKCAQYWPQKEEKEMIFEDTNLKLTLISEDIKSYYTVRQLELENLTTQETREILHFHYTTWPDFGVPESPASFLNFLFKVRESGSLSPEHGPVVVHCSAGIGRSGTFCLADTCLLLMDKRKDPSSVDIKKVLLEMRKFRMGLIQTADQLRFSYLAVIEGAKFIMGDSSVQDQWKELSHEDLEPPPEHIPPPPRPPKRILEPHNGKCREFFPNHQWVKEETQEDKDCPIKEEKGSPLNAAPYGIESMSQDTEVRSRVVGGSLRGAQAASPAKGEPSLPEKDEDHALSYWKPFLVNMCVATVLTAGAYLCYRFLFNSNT
The data set can be described thus: Reversible inhibition of recombinant human PTP1B catalytic domain (1 to 322 amino acid residues) in Tris buffer assessed as inactivation constant kf.

Data set [2] addresses T2, Tyrosine-protein phosphatase non-receptor type 11 (Homo sapiens) (UniProt Q06124).
T2 sequence (whole entry): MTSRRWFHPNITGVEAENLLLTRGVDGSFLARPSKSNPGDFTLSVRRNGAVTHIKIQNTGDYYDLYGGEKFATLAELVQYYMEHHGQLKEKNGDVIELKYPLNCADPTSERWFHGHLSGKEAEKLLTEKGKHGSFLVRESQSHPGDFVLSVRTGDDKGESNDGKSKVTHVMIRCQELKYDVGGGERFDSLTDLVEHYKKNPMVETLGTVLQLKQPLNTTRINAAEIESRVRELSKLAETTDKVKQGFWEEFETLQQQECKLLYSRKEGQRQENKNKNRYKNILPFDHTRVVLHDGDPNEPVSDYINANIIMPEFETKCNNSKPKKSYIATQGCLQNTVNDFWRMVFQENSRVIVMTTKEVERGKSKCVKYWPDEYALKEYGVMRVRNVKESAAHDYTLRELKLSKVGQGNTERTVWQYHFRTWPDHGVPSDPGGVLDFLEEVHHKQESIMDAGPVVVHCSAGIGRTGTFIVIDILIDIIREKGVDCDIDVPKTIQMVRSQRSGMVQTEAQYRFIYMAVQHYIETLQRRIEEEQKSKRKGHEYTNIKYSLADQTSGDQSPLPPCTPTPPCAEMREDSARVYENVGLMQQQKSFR
The data set can be described thus: Inhibition of recombinant human SHP2 catalytic domain (246 to 527 amino acid residues) in 3,3-dimethylglutarate buffer using pNPP as substrate assessed as apparent second order rate constant after 10 mins.

Data set [3] concerns the target T1, Tyrosine-protein phosphatase non-receptor type 1 (Homo sapiens). The data set can be described thus: Reversible inhibition of recombinant human PTP1B catalytic domain (1 to 322 amino acid residues) in 3,3-dimethylglutarate buffer assessed as inactivation constant kf.
Data set [4] shares this target. The data set can be described thus: Inhibition of recombinant human PTP1B catalytic domain (1 to 322 amino acid residues) using pNPP as substrate assessed as p-nitrophenolate release at 200 uM after 10 mins by spectrophotometric analysis in presence of reversible, site-directed inhibitor phosphate, arsenate.
Data set [5] has the same target. The data set can be described thus: Inhibition of recombinant human PTP1B catalytic domain (1 to 322 amino acid residues) using pNPP as substrate assessed as p-nitrophenolate release after 10 mins by spectrophotometric analysis in presence of catalase, superoxide dismutase and mannitol.
The target of data set [6] is T2, Tyrosine-protein phosphatase non-receptor type 11 (Homo sapiens). The experiment in a line: Inhibition of recombinant human SHP2 catalytic domain (246 to 527 amino acid residues) in Tris buffer using pNPP as substrate assessed as apparent second order rate constant after 10 mins.
The target is the same in data set [7]. The data set can be described thus: Inhibition of recombinant human SHP2 catalytic domain (246 to 527 amino acid residues) in 3,3-dimethylglutarate buffer using pNPP as substrate assessed as p-nitrophenolate release by spectrophotometric analysis in presence of reversible, site-directed inhibitor phosphate, arsenate.
The target of data set [8] is T1, Tyrosine-protein phosphatase non-receptor type 1 (Homo sapiens). The experiment in a line: Reversible inhibition of recombinant human PTP1B catalytic domain (1 to 322 amino acid residues) measured for 3 hrs by gel filtration assay. A general note: Size exclusion chromatography separates by hydrodynamic size, large species first.
For data set [9] the target is unchanged. The experiment in a line: Inhibition of recombinant human PTP1B catalytic domain (1 to 322 amino acid residues) using pNPP as substrate assessed as p-nitrophenolate release at 500 uM incubated with first aliquot of enzyme for 2000 secs followed by addition of second aliquot of enzyme measured for 1500 secs by spectrophotometric analysis.
For data set [10] the target is unchanged. The experiment in a line: Reversible inhibition of recombinant human PTP1B catalytic domain (1 to 322 amino acid residues) in Tris buffer assessed as inactivation constant kr.
The nature of data set [11]: Chemical stability of the compound in Bis-Tris and Tris buffer containing DTPA, sodium acetate, Tween 80 at 500 uM at pH 7.0 at 30 degC incubated for 2.5 hrs prior to addition of PTP1B. Format: physicochemical. Particulars: pH 7, 2.5 h.
Data set [12] in a line: Chemical stability of the compound in 3,3-dimethylglutarate buffer containing DTPA, sodium acetate, Tween 80 at 500 uM at pH 7.0 at 30 degC incubated for 2.5 hrs prior to addition of PTP1B. The settings on record: pH 7, 2.5 h. Format: physicochemical.
Data set [13] deals with T1, Tyrosine-protein phosphatase non-receptor type 1 (Homo sapiens). The experiment in a line: Reversible inhibition of recombinant human PTP1B catalytic domain (1 to 322 amino acid residues) in 3,3-dimethylglutarate buffer assessed as inactivation constant kr.

The source made the active and inactive calls. The rule behind the calls is not given here.

Turning to `C=CCN=C=S` [ALLYL ISOTHIOCYANATE], the K in data set [1] amounted to 2.3 M⁻¹ s⁻¹; in data set [3], 2.7 M⁻¹ s⁻¹; in data set [10] it was 2.3 ×10⁻⁴ /s; in [13], 8.3 ×10⁻⁵ /s. Moreover, the Kapp is 9 M⁻¹ s⁻¹ in data set [2] and 16 M⁻¹ s⁻¹ in data set [6]. The inhibition result in [4] and in [7] was “inactive” each time. Further, the inhibition entry in data set [5], in [8] and in [9] was “Active” in each case. In addition, the figures for the Stability entry in data set [11] and in [12] were “Unstable” and “Stable”, respectively.
As to `C[S+]([O-])CCCCN=C=S` (stereo not drawn), the Kapp in data set [2] was found to be 3.7 M⁻¹ s⁻¹; in [6], 3.5 M⁻¹ s⁻¹. The K in data set [3] was found to be 2.4 M⁻¹ s⁻¹; in [13] it was 1.4 ×10⁻⁴ /s. Further, the inhibition entry in [7] is “inactive”.

The record behind these values is ChEMBL document CHEMBL3627631, “Inactivation of protein tyrosine phosphatases by dietary isothiocyanates” (Bioorg Med Chem Lett, 2015).
